We go through nine compounds from paper PMC7016291 (Acta Pharmaceutica Sinica. B, 2019).

Where “and” joins values, the source holds several entries; their conditions need not be identical. Identical values can stand only once. Like-named read-outs stand apart in the source and are kept apart here. Where only a bound is given, the exact number is not on record here.

Data set [1] deals with HIV-2 (ROD). Put plainly: Anti-HIV activity in MT-4 cells. The format is cell-based.
Data set [2] concerns MT-4 cells. The data set can be described thus: Cytotoxicity in uninfected MT-4 cells. The format is cell-based. The settings on record: uninfected MT-4 cell viability reduced by 50%.
The target of data set [3] is WT HIV-1 RT (Human immunodeficiency virus type 1 group M subtype B, UniProt P03366). The data set can be described thus: HIV-1 RT inhibition assay. The format is biochemical. The settings on record: for RT IC50: WT HIV-1 RT, mean of at least two separate experiments.
The target in data set [4] is HIV-1 RT RNase H (Human immunodeficiency virus type 1 group M subtype B, UniProt P03366). Put plainly: HIV-1 RT RNase H inhibition. The format is biochemical. As to conditions: for RNase H IC50: mean of four separate experiments.
The subject of data set [5] is HIV-1 E138K. Put plainly: Anti-HIV-1 activity against mutant strain E138K in MT-4 cells. The format is cell-based.
In data set [6] the test system is HIV-1 L100I. The data set can be described thus: Anti-HIV-1 activity against mutant strain L100I in MT-4 cells. The format is cell-based.
Data set [7] has as its system HIV-1 Y181C. Put plainly: Anti-HIV-1 activity against mutant strain Y181C in MT-4 cells. The format is cell-based.
Data set [8] has as its system HIV-1 K103N. Put plainly: Anti-HIV-1 activity against mutant strain K103N in MT-4 cells. The format is cell-based.
Data set [9] in a line: Cytotoxicity in uninfected MT-4 cells. The format is cell-based. As to conditions: human, uninfected MT-4 cells.
The test system of data set [10] is HIV-1 RES056 (K103N/Y181C). The data set can be described thus: Anti-HIV-1 activity against double mutant RES056 in MT-4 cells. The format is cell-based.
Data set [11] can be described thus: Kinetic aqueous solubility. As to conditions: kinetic from dmso stock.
Data set [12] concerns HIV-1 F227L + V106A. Put plainly: Anti-HIV-1 activity against double mutant F227L + V106A in MT-4 cells. The format is cell-based.
The test system of data set [13] is HIV-1 Y188L. The data set can be described thus: Anti-HIV-1 activity against mutant strain Y188L in MT-4 cells. The format is cell-based.
The conditions of data set [14]: cited from earlier work.
The nature of data set [15]: Plasma protein binding, dialysis equilibrium method, rat.
Data set [16] in a line: Plasma protein binding, dialysis equilibrium method, human.
[17] abbreviates: read-out: EC50 ROD, MT-4 cells, HIV-2 strain ROD.
Where [18] appears, read: Human immunodeficiency virus 2, MT4, read-out: EC50 ROD.
The mark [19] stands for this setting: Human immunodeficiency virus 1, MT4, read-out: EC50 E138K.
The mark [20] stands for this setting: Human immunodeficiency virus 1, MT4, read-out: EC50 L100I.
Setting [21] is: Human immunodeficiency virus 1, MT4, read-out: EC50 Y181C.
The mark [22] stands for this setting: Human immunodeficiency virus 1, MT4, read-out: EC50 K103N.
The mark [23] stands for this setting: Human immunodeficiency virus 1, MT4, read-out: EC50 RES056.
Where [24] appears, read: aqueous solution at pH 2.0, pH 2, aqueous buffer.
Setting [25] is: aqueous solution at pH 7.0, pH 7, aqueous buffer.
Setting [26] is: aqueous solution at pH 7.4, pH 7.4, aqueous buffer.
The mark [27] stands for this setting: Human immunodeficiency virus 1, MT4, read-out: EC50 F227L + V106A.
The mark [28] stands for this setting: Human immunodeficiency virus 1, MT4, read-out: EC50 Y188L.

`COC(=O)CNc1nc(Nc2ccc(C#N)cc2)nc(Oc2c(C)cc(-c3ccc(C#N)cc3)cc2C)n1` [Compound 5a, Methyl (4-((4ʹ-cyano-3,5-dimethyl-[1,1ʹ-biphenyl]-4-yl)oxy)-6-((4-cyanophenyl)-amino)-1,3,5-triazin-2-yl) glycinate]: the EC50 (as a rule, the concentration at which the effect is half-maximal) in data set [1] (setting [17]) came to 0.56 ± 0.14 µM. Moreover, in [2], the CC50 – broadly, the concentration that lowers cell viability or growth by half – is > 125 µM. The “RT IC50” value in data set [3] was found to be 0.047 ± 0.003 µg/mL. Also, the “RNase H IC50” value in [4] was >600 µg/mL.
For the compound `Cc1cc(-c2ccc(C#N)cc2)cc(C)c1Oc1nc(Nc2ccc(C#N)cc2)nc(N2CCC(O)C2)n1` (centres unmarked) [Compound 5h, 4ʹ-((4-((4-Cyanophenyl)amino)-6-(3-hydroxypyrrolidin-1-yl)-1,3,5-triazin-2-yl)-oxy)-3ʹ,5ʹ-dimethyl-[1,1ʹ-biphenyl]-4-carbonitrile], the EC50 is 2.91 ± 0.98 µM in data set [1] (setting [18]); 6.5 ± 0.6 nM in data set [5] (setting [19]); 8.2 ± 2.2 nM in data set [6] (setting [20]); 9.2 ± 0.8 nM in data set [7] (setting [21]); 3.6 ± 0.9 nM in data set [8] (setting [22]); 190 ± 50 nM in data set [10] (setting [23]). The figures for the 50% effective concentration (EC50) in data set [12] (setting [27]) and in [13] (setting [28]) were 930 ± 110 nM and 23 ± 6 nM, respectively. In data set [9], this compound yielded a CC50 at 4 days of 5.72 ± 0.08 µM. In addition, the figures for the IC50 in data set [3] and in [4] were 161 nM and > 0.828 mM, respectively. In addition, the solubility (kinetic) (usually solubility judged after dilution from a stock solution rather than from solid) in data set [11] (FaSSIF) was 14.7 µg/mL and 29.2 µM; in [11] (setting [24]), 3.45 µg/mL and 6.85 µM; in [11] (setting [25]), < 0.786 µg/mL and < 1.56 µM; in data set [11] (setting [26]) it was < 0.786 µg/mL and < 1.56 µM. The “activity against RNase H” value in [4] is recorded as “slight activity”.
As for `COC(=O)CNc1nc(Nc2ccc(C#N)cc2)nc(Nc2c(C)cc(-c3ccc(C#N)cc3)cc2C)n1` [Compound 6b, Methyl (4-((4ʹ-cyano-3,5-dimethyl-[1,1ʹ-biphenyl]-4-yl)amino)-6-((4-cyanophenyl)amino)-1,3,5-triazin-2-yl) glycinate], the half-maximal effective concentration (EC50) in [1] (setting [17]) is 21.5 µM. Further, in [2], the cytotoxic concentration (CC50) was > 125 µM. Moreover, the “RT IC50” value in data set [3] came out at 0.033 ± 0.004 µg/mL. Besides, the “RNase H IC50” value in data set [4] is >600 µg/mL.
`Cc1cc(-c2ccc(C#N)cc2)cc(C)c1Nc1nc(NCC2CCOC2)nc(Nc2ccc(C#N)cc2)n1` (centres unmarked) [Compound 6e, 4ʹ-((4-((4-Cyanophenyl)amino)-6-(((tetrahydrofuran-3-yl)methyl)amino)-1,3,5-triazin-2-yl)amino)-3ʹ,5ʹ-dimethyl-[1,1ʹ-biphenyl]-4-carbonitrile]: the concentration for a half-maximal effect (EC50) came to 7.91 ± 5.7 µM in data set [1] (setting [18]); 5.3 ± 3.3 nM in data set [5] (setting [19]); 22 ± 6 nM in data set [6] (setting [20]); 11 ± 1 nM in data set [7] (setting [21]); 3.4 ± 0.5 nM in [8] (setting [22]); 60 ± 7 nM in data set [10] (setting [23]). Moreover, the EC50 in [12] (setting [27]) is ≥ 16400 nM; in data set [13] (setting [28]), 50 ± 8 nM. Besides, in data set [9], the CC50 at 4 days was > 125 µM. Besides, the 50% inhibitory concentration (IC50) (commonly the concentration needed to halve the response being measured) is 106 nM in data set [3] and > 1.16 mM in data set [4]. Also, the solubility (kinetic) in data set [11] (FaSSIF) was 60.5 µg/mL and 117 µM; in data set [11] (setting [24]), 12.1 µg/mL and 23.4 µM; in data set [11] (setting [25]), < 0.806 µg/mL and < 1.56 µM; in data set [11] (setting [26]), < 0.806 µg/mL and < 1.56 µM.
In the case of `Cc1cc(-c2ccc(C#N)cc2)cc(C)c1Nc1nc(Nc2ccc(C#N)cc2)nc(N2CCN(C)CC2)n1` [Compound 6i, 4ʹ-((4-((4-Cyanophenyl)amino)-6-(4-methylpiperazin-1-yl)-1,3,5-triazin-2-yl)amino)-3ʹ,5ʹ-dimethyl-[1,1ʹ-biphenyl]-4-carbonitrile], the EC50 in [1] (setting [18]) is > 3.69 µM; in [5] (setting [19]), 10 ± 2 nM; in data set [6] (setting [20]), 29 nM; in [7] (setting [21]), 17 ± 5 nM; in data set [8] (setting [22]) it was 7.4 ± 2.1 nM; in data set [10] (setting [23]), 350 ± 80 nM. Also, the half-maximal effective concentration (EC50) in data set [12] (setting [27]) is ≥ 3690 nM; in data set [13] (setting [28]) it was 67 ± 16 nM. The 50% cytotoxic concentration (CC50) at 4 days in data set [9] amounted to 3.69 ± 2.98 µM. Besides, the IC50 is 227 nM in data set [3] and > 1.16 mM in data set [4]. The solubility (kinetic) in data set [11] (FaSSIF) was 60.6 µg/mL and 117 µM; in [11] (setting [24]), 77.3 µg/mL and 150 µM; in data set [11] (setting [25]) it was < 0.804 µg/mL and < 1.56 µM; in [11] (setting [26]) it was < 0.804 µg/mL and < 1.56 µM.
With `Cc1cc(-c2ccc(C#N)cc2)cc(C)c1Nc1nc(Nc2ccc(C#N)cc2)nc(N2CCC(O)C2)n1` (centres unmarked) [Compound 6k, 4ʹ-((4-((4-Cyanophenyl)amino)-6-(3-hydroxypyrrolidin-1-yl)-1,3,5-triazin-2-yl)-amino)-3ʹ,5ʹ-dimethyl-[1,1ʹ-biphenyl]-4-carbonitrile], the EC50 is > 4.54 µM in data set [1] (setting [18]); 3.5 ± 0.8 nM in data set [5] (setting [19]); 4.1 ± 0.5 nM in data set [6] (setting [20]); 3 ± 0.2 nM in data set [7] (setting [21]); 2.3 ± 0.5 nM in data set [8] (setting [22]); 60 nM in data set [10] (setting [23]). The results for the EC50 in data set [12] (setting [27]) and in [13] (setting [28]) were 1040 nM and 10 ± 3 nM, respectively. Further, the half-maximal cytotoxic concentration (CC50) at 4 days in data set [9] came to 4.54 ± 2.56 µM. The values for the IC50 in [3] and in data set [4] were 103 nM and > 1.19 mM, respectively. Further, the solubility (kinetic) in data set [11] (FaSSIF) is 53.4 µg/mL and 104 µM; in data set [11] (setting [24]), 53.7 µg/mL and 104 µM; in [11] (setting [25]), < 0.784 µg/mL and < 1.56 µM; in data set [11] (setting [26]), < 0.784 µg/mL and < 1.56 µM.
Regarding `O=C1Nc2ccc(Cl)cc2[C@@](C#CC2CC2)(C(F)(F)F)O1` [EFV, reference compound], the concentration for a half-maximal effect (EC50) in data set [5] (read-out: EC50 E138K, MT-4 cells, single mutant) was determined as 1.5 ± 0.1 nM; in [6] (read-out: EC50 L100I, MT-4 cells, single mutant), 14 nM; in [7] (read-out: EC50 Y181C, MT-4 cells, single mutant), 1.3 ± 0.1 nM; in data set [8] (read-out: EC50 K103N, MT-4 cells, single mutant) it was 30 ± 11 nM; in data set [10] (read-out: EC50 RES056, MT-4 cells, double mutant K103N/Y181C), 71 ± 36 nM; in data set [12] (read-out: EC50 F227L + V106A, MT-4 cells, double mutant), 84 ± 20 nM. In addition, the EC50 in data set [13] (read-out: EC50 Y188L, MT-4 cells, single mutant) stood at 82 ± 7 nM. In addition, in data set [2], the 50% cytotoxic concentration (CC50) is >2.0 µM.
For `Cc1cc(C#N)cc(C)c1Oc1nc(Nc2ccc(C#N)cc2)nc(N)c1Br` [ETR, etravirine, reference compound], in [14], the aqueous solubility entry is reported as “lower than 1 μg/mL”. In addition, the CC50 at 4 days in [9] is > 2 µg/mL. Besides, the half-maximal cytotoxic concentration (CC50) in [2] (listed as ETV) is >2.0 µM. In addition, the solubility (kinetic) in data set [11] (FaSSIF) is 13.2 µg/mL and 30.3 µM; in data set [11] (setting [24]) it was 127 µg/mL and 291 µM; in [11] (setting [25]), < 1 µg/mL and < 2.3 µM; in data set [11] (setting [26]), < 1 µg/mL and < 2.3 µM.
Regarding `CC(=O)CC(c1ccccc1)c1c(O)c2ccccc2oc1=O` (centres unmarked) [Warfarin, reference compound], the recovery at 2 μmol/L in [15] is 99%; in data set [16], 86%.
